Data published in patent publication US20060063736A1, “Compositions and methods for inhibiting mucin-type O-linked glycosylation” (priority 2004, published 2006).

How the values were obtained:
rppGalNAcT-10 = biological target: T1, rppGalNAcT-10 (Rattus norvegicus, UniProt Q925R7); assay: Radiolabel capture assay, rppGalNAcT-10; format: biochemical; details: MUC5AC glycopeptide
T1 construct: plasmids encoding truncated secreted ppGalNAcTs-1 to −5, -7, -10 and -11; made in house; host or cells: COS-7
T1 sequence (Q925R7 32-603 limits assumed): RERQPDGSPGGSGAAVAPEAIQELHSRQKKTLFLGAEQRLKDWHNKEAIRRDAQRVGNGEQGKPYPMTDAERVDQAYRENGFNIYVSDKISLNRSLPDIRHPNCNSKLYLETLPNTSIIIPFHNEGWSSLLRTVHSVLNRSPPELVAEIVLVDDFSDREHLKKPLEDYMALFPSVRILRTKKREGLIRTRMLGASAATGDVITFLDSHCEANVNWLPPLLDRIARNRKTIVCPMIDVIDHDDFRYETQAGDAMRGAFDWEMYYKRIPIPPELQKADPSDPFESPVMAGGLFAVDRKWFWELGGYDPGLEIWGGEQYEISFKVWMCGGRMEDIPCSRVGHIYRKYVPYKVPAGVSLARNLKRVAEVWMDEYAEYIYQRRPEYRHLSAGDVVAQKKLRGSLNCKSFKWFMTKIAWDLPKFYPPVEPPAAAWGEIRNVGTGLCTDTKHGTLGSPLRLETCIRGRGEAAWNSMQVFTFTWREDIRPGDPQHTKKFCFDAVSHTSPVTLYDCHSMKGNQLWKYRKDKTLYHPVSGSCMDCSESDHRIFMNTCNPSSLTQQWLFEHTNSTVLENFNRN
Protocol: Radiolabel capture assays using ^14C-labeled UDP-GalNAc were performed as previously described with various concentrations of 1-68A or 2-68A in 2% DMSO. Ten Hagen et al. (2001) J. Biol. Chem. 276:17395-17404.
Table 1. IC50 values for 1-68A and 2-68A with ppGalNAcTs-1 to −5, -7, -10, -11, β1-4GalT and α1-3GalT. The requirement of glycopeptides as substrates for ppGalNAcT-7 and -10 precluded the use of the ELLA, as both the substrate and product bind HPA-HRP. Thus, the radiolabel capture assay was employed to measure the IC50 values of 1-68A and 2-68A with ppGalNAcT-7 and -10 using MUC5AC (GTTPSPVPTTSTTSAP; SEQ ID NO:15) glycopeptide, previously shown to be substrate for both enzymes. Ten Hagen et al. (1999) J. Biol. Chem. 274:27867-27874; and Ten Hagen et al. (2001) J. Biol. Chem. 276:17395-17404. IC50 values of 1-68A and 2-68A with ppGalNAcT-5 were performed with α-FLAG purified enzyme and radiolabel capture assay, due to low activity and stability of the crude enzyme. m=murine, r=rattus.

mppGalNAcT-11 = biological target: T2, mppGalNAcT-11 (Mus musculus, UniProt Q921L8); assay: ELLA for ppGalNAcTs, mppGalNAcT-11; format: biochemical, murine; details: 20 μM UDP-GalNAc, 50 μM EA2 peptide 4
T2 construct: plasmids encoding truncated secreted ppGalNAcTs-1 to −5, -7, -10 and -11; made in house; host or cells: COS-7
T2 sequence (Q921L8 30-608 limits assumed): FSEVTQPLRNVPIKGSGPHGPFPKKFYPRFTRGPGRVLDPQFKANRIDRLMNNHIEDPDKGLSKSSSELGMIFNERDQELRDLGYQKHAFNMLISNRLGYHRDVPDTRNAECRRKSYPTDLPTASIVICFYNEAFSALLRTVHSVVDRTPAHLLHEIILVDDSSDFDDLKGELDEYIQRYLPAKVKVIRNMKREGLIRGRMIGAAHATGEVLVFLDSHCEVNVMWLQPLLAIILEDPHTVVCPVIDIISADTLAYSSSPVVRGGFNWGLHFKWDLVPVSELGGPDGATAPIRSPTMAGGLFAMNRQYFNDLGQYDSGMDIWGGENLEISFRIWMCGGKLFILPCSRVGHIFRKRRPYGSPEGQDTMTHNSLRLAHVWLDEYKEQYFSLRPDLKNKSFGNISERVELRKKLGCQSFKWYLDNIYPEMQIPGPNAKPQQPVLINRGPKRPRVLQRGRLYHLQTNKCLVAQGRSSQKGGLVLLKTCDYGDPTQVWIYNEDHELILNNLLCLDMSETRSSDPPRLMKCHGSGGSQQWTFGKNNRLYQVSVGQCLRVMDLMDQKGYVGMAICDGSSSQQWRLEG
Protocol: COS-7 cells were transiently transfected with plasmids encoding truncated secreted ppGalNAcTs-1 to −5, -7, -10 and -11 as previously described. Hagen et al. (1997) J. Biol. Chem. 272:13843-13848. The crude conditioned medium was used as the enzyme source.
Standard reaction conditions for ppGalNAcT assays were as follows. The reaction mixture contained the following components in a final volume of 25 μL: 10 mM MnCl2, 40 mM sodium cacodylate, 40 mM β-mercaptoethanol, 0.1% Triton X-100, pH 6.5, 5 μL of conditioned media, and various concentrations of EA2 peptide 4, UDP-GalNAc and inhibitor. All uridine-based compounds were dissolved in dimethyl sulfoxide (DMSO). […] Reaction rates were linear over the period monitored (20-30 min).
96-Well NeutrAvidin-coated plates were prewashed 3 times with 200 μL of wash buffer (25 mM Tris, 150 mM NaCl, 0.1% bovine serum albumin (BSA) (w/v), and 0.05% Tween (v/v), pH 7.2). […] After 3 washes with 200 μL of PBS, bound HPA-HRP was quantified by the addition of 100 μL of TMB peroxide solution. […] HRP activity was terminated by the addition of 50 μL of 2 N H2SO4 and the resulting solution was analyzed at 450 nm using a UV/Vis microtiter plate reader. The amount of product generated by the ppGalNAcT was extrapolated from absorbance values using an equation fit to the standard curve derived from Origin 6.1 software.

In the case of `O=c1ccn([C@@H]2O[C@H](CON=Cc3ccc(O)c(O)c3O)[C@@H](O)[C@H]2O)c(=O)[nH]1` [1-68A], the IC50 (rppGalNAcT-10) is reported as 7 ± 1 µM and the IC50 (mppGalNAcT-11) is reported as 39 ± 3 µM.
With `O=C(CON=Cc1ccc(O)c(O)c1O)NC[C@H]1O[C@@H](n2ccc(=O)[nH]c2=O)[C@H](O)[C@@H]1O` [2-68A] the IC50 (rppGalNAcT-10) was 6 ± 1 µM and the IC50 (mppGalNAcT-11) was 32 ± 3 µM.
